As a reminder, the IC50 is the concentration that gives 50% inhibition.

The values below come from patent USRE38761E1, “Styryl compounds which inhibit EGF receptor protein tyrosine kinase” (Yissum Research Development Company of the Hebrew …, priority 1987, dated 2005).

In assay [1] the target is T1, EGF receptor (Homo sapiens, UniProt P00533). Particulars: membranes of A431 cells; reported; cited from earlier work.
The target in assay [2] is T1, EGF receptor. Briefly: EGF-receptor kinase (PTK) activity inhibition on extracted EGF receptors, poly(GAT) substrate, Dixon analysis. Type of assay: biochemical. Set-up: EGF receptors were prepared from A431 cells (obtained from the ATCC) and PTK activity of these receptors was assayed; endogenous in cells; host or cells: A431 cells (ATCC). Particulars: EGF receptors from A431 cells; copoly Glu6Ala3Tyr1 substrate; analysis according to Dixon; read-out: Klnh, dissociation constant of the PTK-inhibitor complex. As for the experimental part: The different KInh values were determined by the analysis according to Dixon.
EGF-receptor purification is based on the procedure of Yarden and Schlessinger. A431 cells are grown in 80 cm^2 bottles in confluency (2×10^7 cells per bottle). The cells are washed twice with PBS and harvested with PBS containing 1.0 mmol EDTA (1 hour at 37° C.), and centrifuged at 600 g for 10 minutes. The cells are solubilized in 1 ml per 2×10^7 cells of cold solubilization buffer (50 mmol Hepes buffer, pH 7.6, 1% Triton X-100, 150 mmol NaCl, 5 mmol EGTA, 1 mmol PMSF, 50 μg/ml aprotinin, 25 mmol benzamidine, 5 μg/ml leupeptin, and 10 μg/ml soybean trypsin inhibitor) for 20 minutes at 4° C. After centrifugation at 100000g for 30 minutes, the supernatant is loaded onto a WGA-agarose column (100 μl of packed resin per 2×10^7 cells) and shaken for 2 hours at 4° C. The unabsorbed material is removed and the resin washed twice with HTN buffer (50 mmol Hepes, pH 7.6, 0.1% Triton X-100, 150 mmol NaCl), twice with HTN buffer containing 1 M NaCl, and twice with HTNG buffer (50 mmol Hepes, pH 7.6, 0.1% Triton X-100, 150 mmol NaCl, and 10% glycerol). The EGF receptor is eluted batchwise with HTNG buffer containing 0.5 M N-acetyl-D-glucosamine (200 μl per […] cells). The eluted material is stored in aliquots at −70° C. and diluted before use with TMTNG buffer (50 mmol Tris-Mes buffer, pH 7.6, 0.1% Triton X-100, 150 mmol NaCl, 10% glycerol).
The concentration of EGF in the assay is 300 nM in a final volume of 40 μl. After 5, 10 or 20 minutes, aliquots of 25 μl are applied onto Whatman 3-mm paper cuttings, which are then soaked in cold 10% TCA containing 0.01 M sodium pyrophosphate. After being washed overnight at 4° C., the paper cuttings are dried and counted, measuring ^32P Cerenkov radiation. […] The EGF response for the poly(GAT) phosphorylation is graphed.

Assay [3] deals with cells incubated with EGF or serum. Briefly: Inhibition of cell proliferation as measured by inhibition of DNA synthesis ([3H]thymidine incorporation). Type of assay: cell-based. Here is the method: Cells were seeded at 1×10^5 cells per well in 24-well Costar dishes pre-coated with human fibronectin (by incubating for 30 minutes at room temperature with 10 μg/0.5 ml/well). The cells were grown to confluence for 2 days. The medium was changed to DMEM containing 0.5 calf serum for 36-48 hours and the cells were then incubated with EGF (Toyobo, New York, N.Y.) (20 ng/ml) or serum (10% calf serum) and different concentrations of the inhibitory compounds. […] TCA precipitable material was quantitated by scintillation counting (C). […]
Cells termed HER 14 and K721A (=DK) were prepared by transfecting NIH3T3 cells (clone 2.2) (From C. Fryling, NCI, NIH), which lack endogenous EGF-receptors, with cDNA constructs of wild-type EGF-receptor or mutant EGF-receptor lacking tyrosine kinase activity (in which Lys 721 at the ATP-binding site was replaced by an Ala residue, respectively). All cells were grown in DMEM with 10% calf serum (Hyclone, Logan, Utah).

Where [4] appears, read: [3H]thymidine incorporation halved, cells stimulated with EGF (20 ng/ml), read-out: IC50 - EGF.
Where [5] appears, read: [3H]thymidine incorporation halved, cells stimulated with serum (10% calf serum), read-out: IC50 - FCS.

Molecules are shown by their SMILES. Read-outs that look alike come from different tables or passages of the source.

T1 sequence (P00533 25-1210): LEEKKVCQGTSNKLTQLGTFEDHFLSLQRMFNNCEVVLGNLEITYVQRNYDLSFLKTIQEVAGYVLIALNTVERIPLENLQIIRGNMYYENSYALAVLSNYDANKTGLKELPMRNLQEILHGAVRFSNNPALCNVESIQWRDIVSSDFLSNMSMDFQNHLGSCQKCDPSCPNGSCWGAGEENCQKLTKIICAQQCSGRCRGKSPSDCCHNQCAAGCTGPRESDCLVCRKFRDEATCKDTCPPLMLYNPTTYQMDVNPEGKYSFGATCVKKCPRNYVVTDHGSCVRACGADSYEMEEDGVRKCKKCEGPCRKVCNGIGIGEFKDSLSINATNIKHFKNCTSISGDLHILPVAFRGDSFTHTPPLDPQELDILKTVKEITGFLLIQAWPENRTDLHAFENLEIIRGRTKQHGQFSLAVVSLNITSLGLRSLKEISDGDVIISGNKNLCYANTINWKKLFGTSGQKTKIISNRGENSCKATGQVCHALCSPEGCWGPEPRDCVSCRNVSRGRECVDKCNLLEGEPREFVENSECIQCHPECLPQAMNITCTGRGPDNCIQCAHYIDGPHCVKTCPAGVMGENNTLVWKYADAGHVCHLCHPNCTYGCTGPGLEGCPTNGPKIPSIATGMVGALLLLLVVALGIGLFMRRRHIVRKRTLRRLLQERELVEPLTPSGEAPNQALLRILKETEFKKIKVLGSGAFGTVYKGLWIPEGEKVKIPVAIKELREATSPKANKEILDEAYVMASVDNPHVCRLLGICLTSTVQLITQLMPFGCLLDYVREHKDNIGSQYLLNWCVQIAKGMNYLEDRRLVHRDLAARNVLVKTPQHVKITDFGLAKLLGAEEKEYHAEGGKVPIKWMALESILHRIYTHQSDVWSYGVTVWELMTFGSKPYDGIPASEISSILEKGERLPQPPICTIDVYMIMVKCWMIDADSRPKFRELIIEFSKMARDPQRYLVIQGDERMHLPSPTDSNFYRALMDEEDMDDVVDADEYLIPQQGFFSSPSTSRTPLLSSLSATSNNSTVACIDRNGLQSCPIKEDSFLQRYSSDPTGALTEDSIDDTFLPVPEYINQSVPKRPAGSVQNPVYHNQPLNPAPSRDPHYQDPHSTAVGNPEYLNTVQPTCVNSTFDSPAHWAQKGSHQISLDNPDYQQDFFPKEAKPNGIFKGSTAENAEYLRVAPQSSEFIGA

For the molecule `O=CN/C=C/c1cc(O)ccc1O` [erbstatin], the “inhibition of EGF receptor autophosphorylation” value on EGF receptor [1] is listed as “inhibits the autophosphorylation of the EGF receptor”. For `COc1cc(C=C(C#N)C#N)cc(O)c1O` [Example 2, 3-methoxy-4,5-dihydroxybenzylidene malononitrile], the Ki on EGF receptor [2] is 2.2 ± 0.3 µM.

For the molecule `N#CC(C#N)=C(O)c1cc(O)c(O)c(O)c1` [Example 5, α-Hydroxy-3,4,5-trihydroxybenzylidene malononitrile], the Ki on EGF receptor [2] turned out to be 4.5 µM. On the same count and under the same terms, next, `N#CC(=Cc1ccc(O)c(O)c1)C(=O)O` [Example 10, α-Cyano-3,4-dihydroxycinnamic acid]: 23.6 µM. For `CC(C)(C)c1cc(C=C(C#N)C#N)cc(C(C)(C)C)c1O` [Example 3, 3,5-di-tert butyl-4-hydroxybenzylidene malononitrile], the values for the IC50 in assay [3] (read-out: IC50 - EGF) and in assay [3] (read-out: IC50 - FCS) were 0.1 µM and 0.2 µM, respectively. In the case of `N#CC(C#N)=Cc1ccc(C=O)cc1` [Example 15, 4-Formylbenzylidene malononitrile], on EGF receptor [2], the Ki was determined as 20 µM. On to `N#CC(=Cc1ccc(O)c(O)c1)C(N)=O` [Example 6, α-Cyano-3,4-dihydroxycinnamamide], for which, on EGF receptor [2], the Ki was determined as 3.5 ± 0.6 µM. Regarding `CC(C)(C)c1cc(C=C(C#N)C(N)=S)cc(C(C)(C)C)c1` [Example 26, α-Cyano-β-(3,5-di-tertbutylphenyl)propenethioamide], the IC50 in assay [3] (setting [4]) is 20 µM; in assay [3] (setting [5]) it was 100 µM. For `N#CC(=Cc1ccc(O)c(O)c1)C(=O)Nc1ccccc1` [Example 25, N-Phenyl-α-cyano-3,4-dihydroxycinnamamide], in that order: 30 µM and 100 µM.
